{"source": "paper PMC5029964", "about": "(Journal of the American Chemical Society, 2016)", "key": {"Fur": {"target": "Fur", "conditions": "read-out: Kd for Fe(II) binding; cited from earlier work"}, "PchA [1]": {"target": "T1, PchA (Pseudomonas aeruginosa, UniProt Q51508)", "T1 sequence (Q51508 1-476)": "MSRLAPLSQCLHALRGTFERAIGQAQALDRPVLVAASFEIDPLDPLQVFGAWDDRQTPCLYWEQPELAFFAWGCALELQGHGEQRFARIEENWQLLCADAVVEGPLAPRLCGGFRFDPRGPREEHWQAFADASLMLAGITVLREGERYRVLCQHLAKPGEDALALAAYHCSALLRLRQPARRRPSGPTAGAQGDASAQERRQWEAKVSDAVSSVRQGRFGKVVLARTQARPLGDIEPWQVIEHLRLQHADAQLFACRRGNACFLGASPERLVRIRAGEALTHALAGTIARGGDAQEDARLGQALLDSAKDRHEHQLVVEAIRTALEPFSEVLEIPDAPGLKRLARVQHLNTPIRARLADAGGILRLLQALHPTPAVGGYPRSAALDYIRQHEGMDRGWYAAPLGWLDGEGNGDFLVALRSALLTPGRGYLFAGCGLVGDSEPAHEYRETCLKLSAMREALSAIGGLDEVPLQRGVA", "conditions": "cited from earlier work"}, "PchA [2]": {"target": "T1, PchA", "type": "biochemical"}, "EntC": {"target": "T2, EntC (Escherichia coli, UniProt P0AEJ2)", "T2 sequence (P0AEJ2 1-391)": "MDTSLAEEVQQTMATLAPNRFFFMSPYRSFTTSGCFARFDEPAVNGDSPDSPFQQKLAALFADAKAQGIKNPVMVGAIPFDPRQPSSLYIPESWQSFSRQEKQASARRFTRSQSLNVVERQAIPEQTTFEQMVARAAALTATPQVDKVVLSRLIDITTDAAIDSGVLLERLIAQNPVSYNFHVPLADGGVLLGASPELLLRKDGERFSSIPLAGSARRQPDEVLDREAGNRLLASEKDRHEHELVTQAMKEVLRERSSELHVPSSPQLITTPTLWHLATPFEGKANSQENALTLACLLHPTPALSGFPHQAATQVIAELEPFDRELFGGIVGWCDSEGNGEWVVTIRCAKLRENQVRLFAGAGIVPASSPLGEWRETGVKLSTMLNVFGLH", "test": "Steady-state chorismate isomerase activity, PchB-coupled salicylate fluorescence", "type": "biochemical"}, "Irp9": {"target": "Irp9 (Yersinia enterocolitica, UniProt Q9X9I8)", "type": "biochemical", "conditions": "saturating chorismate 20 μM; magnesium 0–20 mM"}, "PchB": {"target": "T3, PchB (Pseudomonas aeruginosa, UniProt Q51507)", "T3 sequence (Q51507 1-101)": "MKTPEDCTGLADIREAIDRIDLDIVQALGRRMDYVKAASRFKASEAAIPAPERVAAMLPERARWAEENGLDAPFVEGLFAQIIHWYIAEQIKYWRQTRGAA", "test": "Steady-state PchB lyase activity", "type": "biochemical"}, "[3]": {"tested_on": "MST enzymes (PchA, EntC, Irp9)", "test": "Ligand binding rates by stopped-flow intrinsic fluorescence", "conditions": "all three enzymes"}, "PchA, EntC, and Irp9": {"target": "PchA, EntC, and Irp9", "test": "Dissociation constants by intrinsic fluorescence", "type": "binding", "conditions": "read-out: Kd of E·Mg complexes (range over all three enzymes)"}}, "note": "“Also recorded” adds a separate entry of the source.", "data": [{"smiles": "O=S(=O)([O-])[O-].O=S(=O)([O-])[O-].[Fe+2].[NH4+].[NH4+]", "note": "[Fe(II), ferrous ammonium sulfate]", "values": [{"measurement": "Kd", "setting": "Fur", "value": 1.2, "unit": "µM"}, {"measurement": "effect on PchA activity", "setting": "PchA [1]; 100 μM", "value": "did not alter PchA activity"}]}, {"smiles": "[Cl-].[Cl-].[Mg+2]", "note": "[magnesium, magnesium chloride]", "values": [{"measurement": "magnesium concentration at which maximal velocity was observed", "setting": "PchA [2]", "value": "approximately 0.5 mM"}, {"measurement": "magnesium concentrations at which inhibition is noted", "setting": "PchA [2]; steady state", "value": "over 0.5 mM"}, {"measurement": "magnesium concentration at which maximal velocity was observed", "setting": "EntC; saturating chorismate 200 μM, magnesium 0–20 mM", "value": "approximately 0.5 mM"}, {"measurement": "magnesium concentrations at which inhibition is noted", "setting": "EntC; steady state", "value": "over 0.5 mM"}, {"measurement": "magnesium inhibition in the steady state (shape of magnesium dependence)", "setting": "Irp9", "value": "normal hyperbolic shape; also recorded: did not exhibit the same inhibition"}, {"measurement": "binding of and inhibition by magnesium", "setting": "PchB", "value": "does not bind and is not inhibited"}, {"measurement": "observed rate constant of ligand binding (bound from ∼1.0 ms dead time)", "setting": "[3]; binding complete within stopped-flow dead time, 25 °C", "value": "greater than 1600 s^–1"}, {"measurement": "association rate constants (order of magnitude)", "setting": "[3]; suggested from dead-time bound", "value": "~10^8 M^–1 s^–1"}, {"measurement": "Kd", "setting": "PchA, EntC, and Irp9", "value": "130 to 190", "unit": "µM"}]}, {"smiles": "N[C@@H](CS)C(=O)O", "note": "[cysteine]", "values": [{"measurement": "feedback inhibition of PchA", "setting": "PchA [1]", "value": "no inhibition"}]}, {"smiles": "CN1[C@@H]([C@H]2CSC(c3ccccc3O)=N2)SC[C@H]1C(=O)O", "note": "[pyochelin]", "values": [{"measurement": "feedback inhibition of PchA", "setting": "PchA [1]", "value": "no inhibition"}]}]}
